In one assay the test system is A549 cells. Nature of the assay: in vitro antiproliferation assay, A549 (lung). The format is cell-based. A digest of the protocol:
(§1)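 Standard in vitro antiproliferation assays on tumour cell lines, including A549 and H1299 (both lung); IC50 values determined.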

A further assay deals with HCT116. Description: in vitro antiproliferation assay, HCT116 (colon). It is filed as cell-based. A digest of the protocol:
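Standard in vitro antiproliferation assays were used to determine IC50 values against the listed line. A parenthetical value after a cell line name denotes the assay's seeding density.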

The subject of the next assay is HELA. Nature of the assay: in vitro antiproliferation assay, HELA (cervix/p53 wt). The format is cell-based. The protocol: (§2) The IC50 values of various compounds against a various different tumor cell lines were determined using standard in vitro antiproliferation assays. The tumor cell lines tested were as follows: A549 (lung); H1299 (lung), ACHN (kidney/p53 wt), CAKI (renal cell carcinoma), NCI-H460 (lung); HCT116 (colon/p53w0; HELA (cervix/p53 wt), HUH7 (liver/p53 wt), HUVEC (primary endothelial), LNCAP (prostate), HT-29 (colon); MCF-7 (breast); MCF-7 (breast/ER positive), MDA MB435S (breast); MDA MB231 (breast/ER negative), DU145 (prostate); BxPC-3 (pancreatic); SKOV-3 (ovarian); HepG2 (hepatic), NDHF primary normal human dermal fibroblast), SKMEL28 (breast/p53mut), SKMEL5 (breast/p53 wt), U20S (bone) and PC3 (prostate). […] A blank indicates the specified compound was not tested against the specified cell line.
(§3) Many of the compounds were tested against other cell lines. Their activity is reported in TABLE 15, below, where +”, “−”, “−/+” or “+/−” values are as described for TABLES 1-14. Where the cell line includes a value in a parenthetical, the value indicates the seeding density at which the assay was performed

The test system of a further assay is MCF-7. Nature of the assay: in vitro antiproliferation assay, MCF-7 (breast/ER positive). The format is cell-based. The protocol:
as §2, §3

A further assay deals with MDA MB231. Description: in vitro antiproliferation assay, MDA MB231 (breast/ER negative). It is filed as cell-based. The protocol:
as §2, §3

In the next assay the test system is H1299 cells. Nature of the assay: in vitro antiproliferation assay, H1299 (lung). The format is cell-based. The method, boiled down:
as §1

Assay [1] concerns tumors generated from A549 cells. Description: in vivo xenograft experiment, tumors generated from A549 cells. The settings on record: mice. How it is done: Compounds 107, 858, 164, 211 and 156 were tested for their ability to shrink tumors generated from A549 cells in standard xenograft experiments. Compounds 141 and 211 were tested against H1299 tumors.
In the next assay the test system is HUH7. Description: in vitro antiproliferation assay, HUH7 (liver/p53 wt). It is filed as cell-based. The protocol: as §2, §3
A further assay has as its system NDHF. Description: in vitro antiproliferation assay, NDHF (primary normal human dermal fibroblast). The format is cell-based. The protocol: as §2, §3
In a further assay the test system is HUVEC. Description: in vitro antiproliferation assay, HUVEC (primary endothelial). It is filed as cell-based. How it is done:
as §2, §3

For another assay, the system named is CAKI. Description: in vitro antiproliferation assay, CAKI (renal cell carcinoma). The format is cell-based. The protocol: as §2, §3
The test system of the next assay is ACHN. Nature of the assay: in vitro antiproliferation assay, ACHN (kidney/p53 wt). It is filed as cell-based. How it is done:
as §2, §3

A further assay deals with SKMEL5. Nature of the assay: in vitro antiproliferation assay, SKMEL5. It is filed as cell-based. The protocol:
as §2, §3

Another assay deals with LNCAP. Description: in vitro antiproliferation assay, LNCAP (prostate). The format is cell-based. The protocol:
as §2, §3

A further assay has as its system SKMEL28. Description: in vitro antiproliferation assay, SKMEL28 (breast/p53mut). It is filed as cell-based. How it is done:
as §2, §3

A further assay deals with U20S. Description: in vitro antiproliferation assay, U20S (bone). It is filed as cell-based. How it is done: as §2, §3
The next assay deals with PC3. Nature of the assay: in vitro antiproliferation assay, PC3 (prostate). It is filed as cell-based. How it is done:
as §2, §3

The mark [2] stands for this setting: IC50 class against A549 (lung) tumor cells.
[3] abbreviates: HCT116 (colon), read-out: HCT116.
Where [4] appears, read: MCF7, seeding density 2K, read-out: MCF7(2K).
Where [5] appears, read: MCF7, seeding density 4K, read-out: MCF7(4K).
[6] abbreviates: MDA-MB-231, seeding density 2K, read-out: MDA-MB-231(2K).
The mark [7] stands for this setting: MDA-MB-231, seeding density 4K, read-out: MDA-MB-231(4K).
Setting [8] is: IC50 class against H1299 (lung) tumor cells.
Setting [9] is: Table 7, in vitro antiproliferation, A549 (lung) cells.
Where [10] appears, read: Table 7, in vitro antiproliferation, colon cells, read-out: HTC116.
Setting [11] is: Table 5, in vitro antiproliferation, A549 (lung) cells.
[12] abbreviates: Table 5, in vitro antiproliferation, H1299 (lung) cells.

Each structure is given as a SMILES string. Where two headings read alike, the source gives them in different places.

Regarding `CN1CCN(c2ccc(Nc3ncc(F)c(N(C)C4CCC4)n3)cc2)CC1` [compound 125], the IC50 in the assay with A549 cells (setting [2]), with HCT116 (setting [3]), with HELA, in the assay on MCF-7 (setting [4]), in the assay on MCF-7 (setting [5]) and in the assay on MDA MB231 (setting [6]) was at most 20 µM in each case. In addition, the IC50 in the assay with MDA MB231 (setting [7]) and with H1299 cells (setting [8]) was at most 20 µM each time.
For the molecule `CN1CCN(c2ccc(Nc3ncc(F)c(NC4CCCCC4)n3)cc2)CC1.Cl` [compound 156], the “Preliminary Results: reduction in tumor size” value in assay [1] (50 mg/kg Bid, daily, 0.9% Saline) turned out to be 60.4%.
With `CCOC(=O)c1cc2cccc(Nc3ncc(F)c(Nc4cc(C)cc(C)c4)n3)c2[nH]1` [compound 646], the IC50 in the assay with HUH7 was at most 20 µM; in the assay on A549 cells (setting [9]), at most 20 µM; in the assay with HCT116 (setting [3]), above 20 µM; with HCT116 (setting [10]) it was at most 20 µM; in the assay with NDHF, at most 20 µM; in the assay on HUVEC it was at most 20 µM. Besides, the IC50 with CAKI, with HELA, in the assay on ACHN, with SKMEL5, with LNCAP and in the assay on SKMEL28 was at most 20 µM each time. Also, the IC50 with U20S was at most 20 µM; in the assay on H1299 cells (Table 7, in vitro antiproliferation, H1299 (lung) cells) it was at most 20 µM.
Consider `CNC(=O)c1cc2cccc(Nc3ncc(F)c(Nc4ccc5c(c4)OCCO5)n3)c2[nH]1` [compound 649], for which the IC50 with HUH7 is at most 20 µM; in the assay with A549 cells (setting [9]), at most 20 µM; in the assay on HCT116 (setting [3]) it was above 20 µM; in the assay on HCT116 (setting [10]) it was at most 20 µM; in the assay on NDHF, at most 20 µM; in the assay on HUVEC, at most 20 µM. Moreover, the IC50 in the assay on HELA, in the assay on LNCAP and in the assay on U20S was at most 20 µM in each case.
`COc1ccc(Nc2nc(Nc3cccc(-c4ncco4)c3)ncc2F)cc1OC` [compound 858]: the IC50 with A549 cells (A549 (lung) cells, in vitro antiproliferation) was at most 20 µM; with HCT116 (setting [3]), at most 20 µM; in the assay on HELA it was at most 20 µM; with ACHN, at most 20 µM; in the assay on MCF-7 (setting [4]), at most 20 µM; in the assay with MCF-7 (setting [5]), at most 20 µM. Besides, the IC50 with SKMEL5 is at most 20 µM; in the assay with MDA MB231 (setting [6]) it was at most 20 µM; with MDA MB231 (setting [7]), at most 20 µM; with SKMEL28, at most 20 µM; in the assay on U20S, at most 20 µM; in the assay with H1299 cells (H1299 (lung) cells, in vitro antiproliferation), at most 20 µM.
For `COc1cc(Nc2ncc(F)c(Nc3ccc4c(c3)OCCO4)n2)cc(OC)c1` [compound 512], the IC50 with HUH7 was at most 20 µM; with A549 cells (setting [11]), at most 20 µM; with HCT116 (setting [3]), above 20 µM; in the assay with NDHF, at most 20 µM; in the assay on HUVEC it was at most 20 µM; in the assay with HELA it was at most 20 µM. Besides, the IC50 was at most 20 µM in the assay with ACHN; at most 20 µM in the assay on SKMEL5; at most 20 µM in the assay with LNCAP; above 20 µM with PC3; at most 20 µM in the assay with SKMEL28; at most 20 µM in the assay on U20S. The IC50 with H1299 cells (setting [12]) was at most 20 µM.
Consider `Cc1cc(Nc2ncc(F)c(Nc3cc(C)c(O)c(Cl)c3)n2)cc(Cl)c1O` [compound 942], for which the IC50 was at most 20 µM in the assay on HUH7; at most 20 µM in the assay on A549 cells (A549 (lung) cells, antiproliferation); at most 20 µM in the assay on HCT116 (setting [3]); at most 20 µM in the assay with NDHF; at most 20 µM with HUVEC; at most 20 µM with CAKI. For the same molecule, the IC50 in the assay on HELA, with ACHN, with SKMEL5, in the assay on LNCAP, with SKMEL28 and in the assay with U20S was at most 20 µM throughout. Moreover, the IC50 in the assay with H1299 cells (H1299 (lung) cells, antiproliferation) was at most 20 µM.
With `COC(=O)N1CCN(c2ccc(Nc3ncc(F)c(NC4CCC4)n3)cc2)CC1` [compound 107], the IC50 in the assay on HUH7 is at most 20 µM; with A549 cells (setting [2]), at most 20 µM; in the assay on HCT116 (setting [3]), above 20 µM; in the assay on NDHF, at most 20 µM; with HUVEC, at most 20 µM; with CAKI, at most 20 µM. Further, the IC50 in the assay on HELA, in the assay with ACHN, with MCF-7 (setting [4]), in the assay with MCF-7 (setting [5]), in the assay on SKMEL5 and with LNCAP was at most 20 µM in each case. Besides, the IC50 in the assay on MDA MB231 (setting [6]), in the assay with MDA MB231 (setting [7]), in the assay with SKMEL28, in the assay on U20S and with H1299 cells (setting [8]) was at most 20 µM each time.
Regarding `Cc1cc(Nc2ncc(F)c(Nc3ccc4c(c3)OCCO4)n2)cc(C(F)(F)F)c1` [compound 523], the IC50 is at most 20 µM with HUH7; above 20 µM in the assay on A549 cells (setting [11]); above 20 µM in the assay on HCT116 (setting [3]); at most 20 µM in the assay on NDHF; at most 20 µM in the assay on HUVEC; at most 20 µM with HELA. For the same molecule, the IC50 in the assay on ACHN, in the assay on SKMEL5, in the assay on LNCAP, with SKMEL28, with U20S and in the assay with H1299 cells (setting [12]) was at most 20 µM each time.
As for `COc1c(C)cc(Nc2ncc(F)c(Nc3ccc4c(c3)NC(=O)C(C)(C)O4)n2)cc1Cl` [compound 359], the figures for the IC50 in the assay on HUH7 and in the assay on HCT116 (setting [3]) were at most 20 µM and above 20 µM, respectively.
On to `Fc1cnc(Nc2cccc(-c3ncco3)c2)nc1Nc1cc(C2CC2)[nH]n1` [compound 211], for which the “Preliminary Results: reduction in tumor size” value in assay [1] (25 mg/kg bid, 100% DMSO) came to 23.2%. Further, the IC50 is at most 20 µM with A549 cells (Homo sapiens, IC50 class against A549 (lung) tumor cells); at most 20 µM with HCT116 (Homo sapiens, HCT-116, HCT116 (colon), read-out: HCT116); at most 20 µM in the assay with HELA (Homo sapiens); at most 20 µM in the assay on MCF-7 (Homo sapiens, MCF7, seeding density 2K, read-out: MCF7(2K)); at most 20 µM in the assay with MCF-7 (Homo sapiens, MCF7, seeding density 4K, read-out: MCF7(4K)); at most 20 µM in the assay with MDA MB231 (Homo sapiens, MDA-MB-231, seeding density 2K, read-out: MDA-MB-231(2K)). Also, the IC50 in the assay with MDA MB231 (Homo sapiens, MDA-MB-231, seeding density 4K, read-out: MDA-MB-231(4K)) was at most 20 µM; with H1299 cells (Homo sapiens, NCI-H1299, IC50 class against H1299 (lung) tumor cells), at most 20 µM.
As to `CNC(=O)COc1cccc(Nc2ncc(F)c(Nc3ccc4c(c3)NC(=O)C(C)(C)O4)n2)c1` [compound 355], the IC50 with HUH7 is at most 20 µM; in the assay with HCT116 (setting [3]) it was above 20 µM; in the assay on PC3 it was at most 20 µM.

(Values after patent US8809341B2, “2,4-pyrimidinediamine compounds and uses as anti-proliferative agents” (Rigel Pharmaceuticals, Inc., priority 2003, dated 2014).)
